Values after ≈ are worked out from the molar mass of the structure shown. Read-outs that look alike come from different tables or passages of the source.
Experiments:
[1] = test system: Mycobacterium vaccae 10670; assay: Antimicrobial activity (MIC), test strain Mycobacterium vaccae 10670; type: cell-based
Source text: Antimicrobial (MIC value [μM]), cytotoxic (CC50 [μM] for HeLa) and antiproliferative (GI50 [μM] for HUVEC, K-562, HT-29 and MEL-HO) activities of chartreusin and its derivatives. Test strain: Mycobacterium vaccae 10670.

[2] = test system: human umbilical vein endothelial cells HUVEC (ATCC CRL-1730); assay: Growth inhibition (antiproliferative effect) of HUVEC; type: cell-based; settings: read-out: antiproliferative GI50, HUVEC
Procedure: (§2) Compounds were assayed against human umbilical vein endothelial cells HUVEC (ATCC CRL-1730) and human chronic myeloid leukemia cells K-562 (DSM ACC 10) for their antiproliferative effects (GI50) and against human cervix carcinoma cells HeLa (DSM ACC 57) for their cytotoxic effects (CC50) as previously described (Scherlach, K., Partida-Martinez, L. P., Dahse, H. M. & Hertweck, C. Antimitotic rhizoxin derivatives from a cultured bacterial endosymbiont of the rice pathogenic fungus Rhizopus microsporus. Journal of the American Chemical Society 128, 11529-11536 (2006)).

[3] = test system: human chronic myeloid leukemia cells K-562 (DSM ACC 10); assay: Growth inhibition (antiproliferative effect) of K-562; type: cell-based
Procedure: as §2

[4] = Cytotoxicity against HeLa; settings: human, HeLa cells (human cervix carcinoma, DSM ACC 57)
Procedure: as §2

[5] = test system: human HT-29 colon adenocarcinoma cells (ACC 299); assay: Growth inhibition of HT-29 in the presence or absence of light; type: cell-based
Procedure: (§1) The human HT-29 colon adenocarcinoma cells (ACC 299) and the human MEL-HO (ACC 62) melanoma cells were grown as previously described (Ueberschaar, N.; Dahse, H.-M.; Bretschneider, T.; Hertweck, C. Angew. Chem. Int. Ed. 2013, 52, 6185-6189).

[6] = test system: human MEL-HO (ACC 62) melanoma cells; assay: Growth inhibition of MEL-HO in the presence or absence of light; type: cell-based
Procedure: as §1

[7] = test system: methicillin-resistant Staphylococcus aureus (MRSA); assay: Antibiotic activity against MRSA; type: cell-based
[8] = in vitro; settings: human
Procedure: as §2

[9] = test system: human cervix carcinoma cells HeLa (DSM ACC 57); assay: Cytotoxicity against HeLa; settings: for CC50: read-out: cytotoxic CC50, HeLa, HeLa
Procedure: as §2

[10] = Mycolicibacterium vaccae, Test strain: Mycobacterium vaccae 10670, read-out: Antimicrobial MIC value, Mycobacterium vaccae
[11] = Homo sapiens, K562; read-out: antiproliferative GI50, K-562
[12] = Homo sapiens, K562, read-out: antiproliferative GI50, K-562
[13] = Homo sapiens, HT-29, 8 h, read-out: antiproliferative GI50, HT-29, 420 nm, 3 × 8 h, HT-29, 420 nm, 3 × 8 h
[14] = Homo sapiens, HT-29, read-out: GI50 with light, HT-29, HT-29, with light (blue LED)
[15] = Homo sapiens, HT-29, read-out: GI50 without light, HT-29, HT-29, without light (absence of light)
[16] = Homo sapiens, HT-29, read-out: antiproliferative GI50, HT-29, w/o light, HT-29, w/o light
[17] = read-out: GI50 without light, HT-29, HT-29, without light (absence of light)
[18] = 8 h, read-out: antiproliferative GI50, Mel-HO, 420 nm, 3 × 8 h
[19] = read-out: antiproliferative GI50, Mel-HO, w/o light
[20] = Mycolicibacterium vaccae, 10670, read-out: Antimicrobial MIC value, Mycobacterium vaccae
[21] = Test strain: Mycobacterium vaccae 10670, read-out: Antimicrobial MIC value, Mycobacterium vaccae
[22] = K-562; read-out: antiproliferative GI50, K-562

MIC [1, 10]	GI50 [3, 11]	Molecule	GI50 ([2]; Homo sapiens)	CC50 [4]	also measured
2.4 µM (≈ 1.54 µg/mL)	4.82 µM	COC1[C@@H](O)C(C)O[C@H](OC2[C@H](Oc3cccc4c(O)c5c(=O)oc6ccc(O)c7c(=O)oc(c34)c5c67)OC(C)[C@H](O)[C@@H]2O)[C@@H]1O (stereo partly shown)	35 µM	25.5 µM	
17.7 µM (≈ 12.5 µg/mL)	8.65 µM	COC1[C@@H](O)C(C)O[C@H](OC2[C@H](Oc3cccc4c(O)c5c(=O)oc6cc(Br)cc7c(=O)oc(c34)c5c67)OC(C)[C@H](O)[C@@H]2O)[C@@H]1O (stereo partly shown) [(1→2)Abeobromchartreusin, (1→2)-Abeo-bromochartreusin]	25.1 µM	26.1 µM	
4.87 µM (≈ 3.12 µg/mL)	2.03 µM	COC1[C@@H](O)C(C)O[C@H](OC2[C@H](Oc3cccc4c(O)c5c(=O)oc6cc(C)cc7c(=O)oc(c34)c5c67)OC(C)[C@H](O)[C@@H]2O)[C@@H]1O (stereo partly shown) [(1→2)Abeochartreusin, (1→2)-Abeo-chartreusin]	5.78 µM	14.2 µM	
19.1 µM (≈ 12.5 µg/mL)	11.6 µM	CCc1cc2oc(=O)c3c(O)c4cccc(O[C@@H]5OC(C)[C@H](O)[C@H](O)C5O[C@H]5OC(C)[C@H](O)C(OC)[C@H]5O)c4c4oc(=O)c(c1)c2c34 (stereo partly shown) [(1→2)Abeohomochartreusin, (1→2)-Abeo-homochartreusin]	26.6 µM	58.1 µM	
8.9 µM (≈ 6.28 µg/mL)	8.79 µM	COC1[C@@H](O)C(C)O[C@H](OC2[C@H](Oc3cccc4c(O)c5c(=O)oc6ccc(Br)c7c(=O)oc(c34)c5c67)OC(C)[C@H](O)[C@@H]2O)[C@@H]1O (stereo partly shown) [Bromchartreusin, 1-Bromochartreusin]	65.8 µM	48.2 µM	
19.2 µM (≈ 12.5 µg/mL)	64.1 µM	C#Cc1ccc2oc(=O)c3c(O)c4cccc(O[C@@H]5OC(C)[C@H](O)[C@H](O)C5O[C@H]5OC(C)[C@H](O)C(OC)[C@H]5O)c4c4oc(=O)c1c2c34 (stereo partly shown) [Ethinylchartreusin, Ethynylchartreusin]	> 77 µM	> 77 µM	GI50 ([5]; Homo sapiens, HT-29, 8 h, HT-29, 420 nm, 3 × 8 h, read-out: antiproliferative GI50, HT-29, 420 nm, 3 × 8 h): 26.9 µM; GI50 ([5]; Homo sapiens, HT-29, HT-29, w/o light, read-out: antiproliferative GI50, HT-29, w/o light): 33.2 µM
9.6 µM (≈ 6.28 µg/mL)	2.14 µM	CCc1ccc2oc(=O)c3c(O)c4cccc(O[C@@H]5OC(C)[C@H](O)C(O)C5O[C@H]5OC(C)[C@H](O)C(OC)C5O)c4c4oc(=O)c1c2c34 (stereo partly shown) [Homochartreusin]	7.18 µM	23.1 µM	selectivity (GI50 HUVEC versus cytotoxic activity HeLa) ([9]; compared with Chartreusin, HUVEC GI50 similarly low, HeLa CC50 different): higher selectivity
76 µM (≈ 49.9 µg/mL)	> 76 µM	COc1ccc2oc(=O)c3c(O)c4cccc(O[C@@H]5OC(C)[C@H](O)[C@H](O)C5O[C@H]5OC(C)[C@H](O)C(OC)[C@H]5O)c4c4oc(=O)c1c2c34 (stereo partly shown) [Methoxychartreusin]	> 76 µM	> 76 µM	
2.5 µM (≈ 1.57 µg/mL)	31.6 µM	COC1[C@@H](O)C(C)O[C@H](OC2[C@H](Oc3cccc4c(O)c5c(=O)oc6cccc7c(=O)oc(c34)c5c67)OC(C)[C@H](O)[C@@H]2O)[C@@H]1O (stereo partly shown) [Norchartreusin]	79.8 µM	70.7 µM	
		Norchartarin-1,10 bis-1,4′-bipiperidine-1′-carboxylate			MIC [1, 21]: >100 µM; GI50 [2]: 52.3 µM; GI50 [3, 22]: 52.2 µM; CC50 [9]: > 71 µM
		vinylchartarin-1,10 bis-1,4′-bipiperidine-1′-carboxylate			MIC [1, 21]: >100 µM; GI50 [2]: > 68 µM; GI50 [3, 22]: > 68 µM; CC50 [9]: > 68 µM

Molecule	MIC [1, 10]	GI50 [3, 11]	GI50 ([2]; Homo sapiens)	CC50 [4]	also measured
C#Cc1cc2oc(=O)c3c(O)c4cccc(O[C@@H]5OC(C)[C@H](O)[C@H](O)C5O[C@H]5OC(C)[C@H](O)C(OC)[C@H]5O)c4c4oc(=O)c(c1)c2c34 (stereo partly shown) [(1→2)Abeo-ethinylchartreusin, (1→2)-Abeo-ethynylchartreusin]	19.2 µM (≈ 12.5 µg/mL)		7.84 µM		GI50 [3, 12]: 3.23 µM; activity higher in the presence of light, HT-29 ([5]; HT-29, with light vs without light): 5 fold; GI50 [5, 13]: 1.69 µM; GI50 [5, 14]: 1.7 µM; GI50 [5, 15]: 7 to 9.4 µM; GI50 [5, 16]: 8.61 µM; GI50 [5, 17]: 8.6 µM; GI50 [6, 18]: 1380 nM; GI50 [6, 19]: 2000 nM; antibiotic activity against MRSA relative to chartreusin and ciprofloxacin [7]: as active as the natural product and are even more potent than the reference antibiotic ciprofloxacin; CC50 [8]: 13.4 µM
C=Cc1cc2oc(=O)c3c(O)c4cccc(O[C@@H]5OC(C)[C@H](O)[C@H](O)C5O[C@H]5OC(C)[C@H](O)C(OC)[C@H]5O)c4c4oc(=O)c(c1)c2c34 (stereo partly shown) [(1→2)Abeovinylchartreusin, (1→2)-Abeo-vinylchartreusin]	19.2 µM (≈ 12.5 µg/mL)		16.9 µM		GI50 [3, 12]: 4.9 µM; GI50 [5, 13]: 3.06 µM; GI50 [5, 14]: 3.1 µM; GI50 [5, 15]: 7 to 9.4 µM; GI50 [5, 16]: 9.35 µM; GI50 [5, 17]: 9.4 µM; GI50 [6, 18]: 480 nM; GI50 [6, 19]: 1030 nM; CC50 [8]: 33.7 µM
O=C(Oc1c2cccc(OC(=O)N3CCC(N4CCCCC4)CC3)c2c2oc(=O)c3c(Br)ccc4oc(=O)c1c2c43)N1CCC(N2CCCCC2)CC1 [Bromchartarin-1,10 bis-1,4′-bipiperidine-1′-carboxylate]		9.27 µM	10 µM	20.2 µM	MIC [1, 20]: > 100 µM
Cc1ccc2oc(=O)c3c(OC(=O)N4CCC(N5CCCCC5)CC4)c4cccc(OC(=O)N5CCC(N6CCCCC6)CC5)c4c4oc(=O)c1c2c34 [Chartarin-1,10 bis-1,4′-bipiperidine-1′-carboxylate]		3.18 µM	4.43 µM	10.1 µM	MIC [1, 20]: > 100 µM
